Columns and labels:
Experiment in all cases: TR-FRET enzymatic activity assay against PI3K isoforms
Assay type in all cases: biochemical
PI3Kβ = PI3Kβ (Homo sapiens (Human), UniProt P42338); settings: PI3Kβ, TR-FRET, 2×Km ATP, 30 minutes at 25° C.
From the text: (§1) The compounds of formula (I) were characterized for their enzymatic activity against the PI3K isoforms. […] TR-FRET monitored the formation of 3,4,5-inositol triphosphate molecule that competed with fluorescently labeled PIP3 for binding to the GRP-1 pleckstrin homology domain protein.

PI3Kδ = PI3Kδ (Homo sapiens (Human), UniProt O00329); settings: 2×Km ATP, 30 minutes at 25° C.
Sequence of PI3Kδ (O00329 whole entry): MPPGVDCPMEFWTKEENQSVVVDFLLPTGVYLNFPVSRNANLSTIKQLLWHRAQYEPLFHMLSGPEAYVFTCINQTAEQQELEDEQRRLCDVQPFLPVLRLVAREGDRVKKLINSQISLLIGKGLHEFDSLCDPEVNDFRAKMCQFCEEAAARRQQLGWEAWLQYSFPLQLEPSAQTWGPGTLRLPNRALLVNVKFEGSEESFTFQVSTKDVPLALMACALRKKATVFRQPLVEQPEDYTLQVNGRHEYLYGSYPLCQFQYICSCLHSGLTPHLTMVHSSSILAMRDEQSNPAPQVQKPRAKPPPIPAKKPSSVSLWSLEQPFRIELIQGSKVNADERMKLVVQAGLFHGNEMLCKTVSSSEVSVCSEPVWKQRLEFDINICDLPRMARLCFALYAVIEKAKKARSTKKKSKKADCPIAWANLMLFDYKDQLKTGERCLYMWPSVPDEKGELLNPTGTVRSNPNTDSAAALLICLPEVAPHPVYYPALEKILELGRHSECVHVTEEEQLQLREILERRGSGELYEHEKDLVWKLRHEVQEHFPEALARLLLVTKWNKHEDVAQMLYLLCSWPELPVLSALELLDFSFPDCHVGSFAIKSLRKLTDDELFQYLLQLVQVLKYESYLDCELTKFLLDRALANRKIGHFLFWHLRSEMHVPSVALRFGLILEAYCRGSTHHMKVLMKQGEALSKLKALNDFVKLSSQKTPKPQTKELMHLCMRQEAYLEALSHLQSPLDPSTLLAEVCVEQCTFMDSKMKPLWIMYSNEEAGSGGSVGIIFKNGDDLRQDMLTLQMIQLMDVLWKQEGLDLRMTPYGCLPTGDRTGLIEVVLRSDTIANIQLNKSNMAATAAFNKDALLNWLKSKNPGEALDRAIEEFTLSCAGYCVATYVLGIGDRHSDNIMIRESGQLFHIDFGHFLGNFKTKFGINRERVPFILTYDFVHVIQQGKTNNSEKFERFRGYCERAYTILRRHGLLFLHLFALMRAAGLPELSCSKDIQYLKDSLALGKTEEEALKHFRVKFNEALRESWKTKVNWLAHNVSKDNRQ
Sequence of PI3Kδ (P27986 whole entry partner): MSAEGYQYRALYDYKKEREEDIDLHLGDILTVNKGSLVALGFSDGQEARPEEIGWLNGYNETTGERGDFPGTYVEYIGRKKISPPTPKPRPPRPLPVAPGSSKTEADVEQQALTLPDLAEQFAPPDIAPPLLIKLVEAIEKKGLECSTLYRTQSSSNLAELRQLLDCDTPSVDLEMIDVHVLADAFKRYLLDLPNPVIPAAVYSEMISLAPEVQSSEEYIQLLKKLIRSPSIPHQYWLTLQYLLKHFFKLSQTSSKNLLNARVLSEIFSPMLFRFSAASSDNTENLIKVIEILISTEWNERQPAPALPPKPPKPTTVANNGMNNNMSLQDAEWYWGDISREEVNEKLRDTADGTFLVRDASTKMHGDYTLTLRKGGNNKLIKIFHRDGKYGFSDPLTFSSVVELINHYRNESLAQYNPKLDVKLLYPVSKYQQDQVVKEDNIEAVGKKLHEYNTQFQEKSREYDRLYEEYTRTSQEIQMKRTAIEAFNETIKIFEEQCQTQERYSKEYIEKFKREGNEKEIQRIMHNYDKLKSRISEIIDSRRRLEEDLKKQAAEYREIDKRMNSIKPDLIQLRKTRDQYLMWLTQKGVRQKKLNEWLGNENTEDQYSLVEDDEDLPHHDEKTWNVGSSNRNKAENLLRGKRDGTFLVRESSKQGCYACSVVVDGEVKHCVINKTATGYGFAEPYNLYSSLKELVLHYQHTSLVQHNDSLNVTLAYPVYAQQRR
From the text: as §1

PI3Kγ = PI3Kγ (Homo sapiens (Human), UniProt P48736); settings: 2×Km ATP, 30 minutes at 25° C.
Sequence of PI3Kγ (P48736 whole entry): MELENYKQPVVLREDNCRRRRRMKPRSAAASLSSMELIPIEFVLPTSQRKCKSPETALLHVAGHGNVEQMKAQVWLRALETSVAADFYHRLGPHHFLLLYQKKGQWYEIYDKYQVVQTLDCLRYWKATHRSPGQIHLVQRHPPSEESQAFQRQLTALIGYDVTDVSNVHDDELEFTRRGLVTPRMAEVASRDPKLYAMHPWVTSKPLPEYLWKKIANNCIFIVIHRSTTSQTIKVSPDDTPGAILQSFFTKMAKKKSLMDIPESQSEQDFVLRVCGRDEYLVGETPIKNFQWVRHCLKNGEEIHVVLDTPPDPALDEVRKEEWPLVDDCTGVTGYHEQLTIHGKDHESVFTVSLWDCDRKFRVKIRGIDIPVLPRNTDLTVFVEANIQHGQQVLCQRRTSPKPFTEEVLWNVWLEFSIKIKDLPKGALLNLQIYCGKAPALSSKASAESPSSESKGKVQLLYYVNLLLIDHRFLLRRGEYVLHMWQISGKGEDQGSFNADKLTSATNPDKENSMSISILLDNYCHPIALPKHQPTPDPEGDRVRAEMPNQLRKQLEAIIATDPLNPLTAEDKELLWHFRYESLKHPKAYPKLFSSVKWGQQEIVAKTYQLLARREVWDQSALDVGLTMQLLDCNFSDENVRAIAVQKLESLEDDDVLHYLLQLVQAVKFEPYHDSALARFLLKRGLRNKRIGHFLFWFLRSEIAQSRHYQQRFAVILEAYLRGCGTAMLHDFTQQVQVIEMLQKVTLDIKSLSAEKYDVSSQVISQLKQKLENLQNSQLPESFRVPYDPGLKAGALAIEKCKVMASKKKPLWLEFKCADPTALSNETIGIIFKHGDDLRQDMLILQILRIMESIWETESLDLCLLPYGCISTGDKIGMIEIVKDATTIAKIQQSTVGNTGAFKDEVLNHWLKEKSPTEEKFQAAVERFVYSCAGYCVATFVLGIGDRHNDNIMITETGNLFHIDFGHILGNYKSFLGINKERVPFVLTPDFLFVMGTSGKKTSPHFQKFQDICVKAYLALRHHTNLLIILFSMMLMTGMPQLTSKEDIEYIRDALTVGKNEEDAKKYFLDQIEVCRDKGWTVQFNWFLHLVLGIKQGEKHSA
From the text: as §1

Sequence of PI3Kβ (P42338 whole entry, the tested form may be a part, canonical isoform): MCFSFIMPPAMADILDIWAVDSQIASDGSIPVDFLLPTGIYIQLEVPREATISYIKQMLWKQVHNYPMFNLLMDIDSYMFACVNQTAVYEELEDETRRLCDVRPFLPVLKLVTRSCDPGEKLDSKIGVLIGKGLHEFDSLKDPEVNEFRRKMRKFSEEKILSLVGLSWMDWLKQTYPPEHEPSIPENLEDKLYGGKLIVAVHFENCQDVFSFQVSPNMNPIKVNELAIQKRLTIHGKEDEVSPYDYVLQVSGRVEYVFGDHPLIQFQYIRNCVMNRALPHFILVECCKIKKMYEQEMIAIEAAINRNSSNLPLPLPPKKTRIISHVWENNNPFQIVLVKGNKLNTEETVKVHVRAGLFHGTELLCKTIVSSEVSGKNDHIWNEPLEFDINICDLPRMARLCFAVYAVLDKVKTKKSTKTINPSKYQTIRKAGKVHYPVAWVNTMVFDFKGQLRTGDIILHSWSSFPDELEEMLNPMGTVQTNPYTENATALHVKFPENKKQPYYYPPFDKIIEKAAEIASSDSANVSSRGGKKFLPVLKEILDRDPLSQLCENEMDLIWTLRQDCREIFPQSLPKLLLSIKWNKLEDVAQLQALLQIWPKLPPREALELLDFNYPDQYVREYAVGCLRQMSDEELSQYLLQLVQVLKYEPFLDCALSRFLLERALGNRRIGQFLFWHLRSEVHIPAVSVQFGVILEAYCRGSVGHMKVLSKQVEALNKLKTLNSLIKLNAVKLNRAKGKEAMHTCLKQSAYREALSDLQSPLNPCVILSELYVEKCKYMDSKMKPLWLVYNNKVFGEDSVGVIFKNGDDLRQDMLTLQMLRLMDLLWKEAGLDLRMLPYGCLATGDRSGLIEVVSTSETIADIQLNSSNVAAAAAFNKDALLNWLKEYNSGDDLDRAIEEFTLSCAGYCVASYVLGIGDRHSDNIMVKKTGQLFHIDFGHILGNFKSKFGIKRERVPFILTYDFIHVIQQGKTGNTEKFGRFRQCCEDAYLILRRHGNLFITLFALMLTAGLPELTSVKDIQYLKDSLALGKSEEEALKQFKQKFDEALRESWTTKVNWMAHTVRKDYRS
Sequence of PI3Kβ (P27986 whole entry partner, the tested form may be a part, canonical isoform): as the sequence (P27986 whole entry partner) above

Row | Compound | IC50 (PI3Kβ) | IC50 (PI3Kδ) | IC50 (PI3Kγ)
1 | C[C@H](Nc1ncnc(N)c1C#N)c1nc2cccc(Cl)c2c(=O)n1CCCN(C)C [Compound 57, (S)-4-amino-6-((1-(5-chloro-3-(3-(dimethylamino)propyl)-4-oxo-3,4-dihydroquinazolin-2-yl)ethyl)amino)pyrimidine-5-carbonitrile] | 480 nM | 6 nM | ≥ 10000 nM
2 | C[C@H](Nc1nc(N)nc(N)c1C#N)c1nc2cccc(Cl)c2c(=O)n1CCN(C)C [Compound 58, (S)-2,4-diamino-6-((1-(5-chloro-3-(2-(dimethylamino)ethyl)-4-oxo-3,4-dihydroquinazolin-2-yl)ethyl)amino)pyrimidine-5-carbonitrile] | 460 nM | 24 nM | 6600 nM
3 | NC(=O)CCCCn1c([C@@H](Nc2nc(N)nc(N)c2Cl)C2CC2)nc2cccc(Cl)c2c1=O [Compound 59, (S)-5-(5-chloro-2-(cyclopropyl((2,6-diamino-5-chloropyrimidin-4-yl)amino)methyl)-4-oxoquinazolin-3(4H)-yl)pentanamide] | 500 nM | 8 nM | 2200 nM
4 | C[C@H](Nc1nc(N)nc(N)c1C#N)c1nc2cccc(Cl)c2c(=O)n1CCCN(C)Cc1ccccc1 [Compound 60, (S)-2,4-diamino-6-((1-(3-(3-(benzyl(methyl)amino)propyl)-5-chloro-4-oxo-3,4-dihydroquinazolin-2-yl)ethyl)amino)pyrimidine-5-carbonitrile] | 150 nM | 4 nM | 6400 nM
5 | Cc1nc(N)nc(N[C@@H](C)c2nc3cccc(Cl)c3c(=O)n2CCCN(C)Cc2ccccc2)c1C#N [Compound 61, (S)-2-amino-4-((1-(3-(3-(benzyl(methyl)amino)propyl)-5-chloro-4-oxo-3,4-dihydroquinazolin-2-yl)ethyl)amino)-6-methylpyrimidine-5-carbonitrile] | 140 nM | 7 nM | 6600 nM
6 | C[C@H](Nc1nc(N)nc(N)c1C#N)c1nc2cccc(Cl)c2c(=O)n1CCCN(C)CC(F)(F)F [Compound 62, (S)-2,4-diamino-6-((1-(5-chloro-3-(3-(methyl(2,2,2-trifluoroethyl)amino)propyl)-4-oxo-3,4-dihydroquinazolin-2-yl)ethyl)amino)pyrimidine-5-carbonitrile] | 320 nM | 4 nM | 960 nM
7 | N#CCCn1c([C@@H](Nc2nc(N)nc(N)c2Cl)C2CC2)nc2cccc(Cl)c2c1=O [Compound 63, (S)-3-(5-chloro-2-(cyclopropyl((2,6-diamino-5-chloropyrimidin-4-yl)amino)methyl)-4-oxoquinazolin-3(4H)-yl)propanenitrile] | 640 nM | 2 nM | 800 nM
8 | NC(=O)CCn1c([C@@H](Nc2nc(N)nc(N)c2Cl)C2CC2)nc2cccc(Cl)c2c1=O [Compound 68, (S)-3-(5-chloro-2-(cyclopropyl((2,6-diamino-5-chloropyrimidin-4-yl)amino)methyl)-4-oxoquinazolin-3(4H)-yl)propanamide] | 520 nM | 5 nM | 1000 nM
9 | NC(=O)CCCn1c([C@@H](Nc2nc(N)nc(N)c2Cl)C2CC2)nc2cccc(Cl)c2c1=O [Compound 69, (S)-4-(5-chloro-2-(cyclopropyl((2,6-diamino-5-chloropyrimidin-4-yl)amino)methyl)-4-oxoquinazolin-3(4H)-yl)butanamide] | 49 nM | 2 nM | 1300 nM
10 | C[C@H](Nc1ncnn2ccnc12)c1nc2cccc(Cl)c2c(=O)n1CCCN [Compound 71, (S)-3-(3-aminopropyl)-5-chloro-2-(1-(imidazo[2,1-f][1,2,4]triazin-4-ylamino)ethyl)quinazolin-4(3H)-one] | 240 nM | 34 nM | ≥ 10000 nM
11 | C[C@H](Nc1nc(N)nc(N)c1C#N)c1nc2cccc(Cl)c2c(=O)n1Cc1cc[nH]n1 [Compound 76, (S)-4-((1-(3-((1H-pyrazol-3-yl)methyl)-5-chloro-4-oxo-3,4-dihydroquinazolin-2-yl)ethyl)amino)-2,6-diaminopyrimidine-5-carbonitrile] | 46 nM | 2 nM | 160 nM
12 | C[C@H](Nc1ncnc(N)c1C#N)c1nc2cccc(Cl)c2c(=O)n1Cc1cc[nH]n1 [Compound 77, (S)-4-((1-(3-((1H-pyrazol-3-yl)methyl)-5-chloro-4-oxo-3,4-dihydroquinazolin-2-yl)ethyl)amino)-6-aminopyrimidine-5-carbonitrile] | 860 nM | 33 nM | 7000 nM
13 | C[C@H](Nc1ncnn2ccnc12)c1nc2cccc(Cl)c2c(=O)n1Cc1cc[nH]n1 [Compound 78, (S)-3-((1H-pyrazol-3-yl)methyl)-5-chloro-2-(1-(imidazo[2,1-f][1,2,4]triazin-4-ylamino)ethyl)quinazolin-4(3H)-one] | 920 nM | 49 nM | 3000 nM
14 | C[C@H](Nc1nc(N)nc(N)c1C#N)c1nc2cccc(Cl)c2c(=O)n1Cc1cn[nH]c1 [Compound 79, (S)-4-((1-(3-((1H-pyrazol-4-yl)methyl)-5-chloro-4-oxo-3,4-dihydroquinazolin-2-yl)ethyl)amino)-2,6-diaminopyrimidine-5-carbonitrile] | 40 nM | 2 nM | 380 nM
15 | C[C@H](Nc1nc(N)nc(N)c1C#N)c1nc2cccc(Cl)c2c(=O)n1Cc1ncc[nH]1 [Compound 80, (S)-4-((1-(3-((1H-imidazol-2-yl)methyl)-5-chloro-4-oxo-3,4-dihydroquinazolin-2-yl)ethyl)amino)-2,6-diaminopyrimidine-5-carbonitrile] | 1100 nM | 27 nM | 2400 nM

Molecules with a lower IC50 (PI3Kβ), results first:

Row | IC50 (PI3Kβ) | IC50 (PI3Kδ) | IC50 (PI3Kγ) | Compound
16 | 35 nM | 12 nM | 7900 nM | C[C@H](Nc1ncnc2scnc12)c1nc2cccc(Cl)c2c(=O)n1CCCN [Compound 72, (S)-3-(3-aminopropyl)-5-chloro-2-(1-(thiazolo[5,4-d]pyrimidin-7-ylamino)ethyl)quinazolin-4(3H)-one]
17 | 21 nM | 6 nM | 9400 nM | C[C@H](Nc1ncnc(N)c1C#N)c1nc2cccc(Cl)c2c(=O)n1CCCN [Compound 73, (S)-4-amino-6-((1-(3-(3-aminopropyl)-5-chloro-4-oxo-3,4-dihydroquinazolin-2-yl)ethyl)amino)pyrimidine-5-carbonitrile]
18 | 19 nM | 1 nM | 2300 nM | C[C@H](Nc1nc(N)nc(N)c1C#N)c1nc2cccc(Cl)c2c(=O)n1CCC(O)CNC(C)(C)C (stereo partly drawn) [Compound 75, 2,4-diamino-6-(((1S)-1-(3-(4-(tert-butylamino)-3-hydroxybutyl)-5-chloro-4-oxo-3,4-dihydroquinazolin-2-yl)ethyl)amino)pyrimidine-5-carbonitrile]
19 | 17 nM | 1 nM | 1620 nM | CC(C)NCC(O)CCn1c([C@H](C)Nc2nc(N)nc(N)c2C#N)nc2cccc(Cl)c2c1=O (stereo partly drawn) [Compound 74, 2,4-diamino-6-(((1S)-1-(5-chloro-3-(3-hydroxy-4-(isopropylamino)butyl)-4-oxo-3,4-dihydroquinazolin-2-yl)ethyl)amino)pyrimidine-5-carbonitrile]
20 | 12 nM | 1 nM | 110 nM | N#Cc1c(N)nc(N)nc1N[C@H](c1nc2cccc(Cl)c2c(=O)n1CCCCC(N)=O)C1CC1 [Compound 64, (S)-5-(5-chloro-2-(cyclopropyl((2,6-diamino-5-cyanopyrimidin-4-yl)amino)methyl)-4-oxoquinazolin-3(4H)-yl)pentanamide]
21 | 9 nM | 2 nM | 190 nM | CC(=O)NCCCn1c([C@@H](Nc2nc(N)nc(N)c2C#N)C2CC2)nc2cccc(Cl)c2c1=O [Compound 53, (S)—N-(3-(5-chloro-2-(cyclopropyl((2,6-diamino-5-cyanopyrimidin-4-yl)amino)methyl)-4-oxoquinazolin-3(4H)-yl)propyl)acetamide]
22 | 7 nM | 1 nM | 470 nM | N#Cc1c(N)nc(N)nc1N[C@H](c1nc2c(Cl)ccc(Cl)c2c(=O)n1CCCC(N)=O)C1CC1 [Compound 65, (S)-4-(5,8-dichloro-2-(cyclopropyl((2,6-diamino-5-cyanopyrimidin-4-yl)amino)methyl)-4-oxoquinazolin-3(4H)-yl)butanamide]
23 | 5 nM | 0.4 nM | 830 nM | N#Cc1c(N)nc(N)nc1N[C@H](c1nc2cccc(Cl)c2c(=O)n1CCCNC1CCC1)C1CC1 [Compound 54, (S)-2,4-diamino-6-(((5-chloro-3-(3-(cyclobutylamino)propyl)-4-oxo-3,4-dihydroquinazolin-2-yl)(cyclopropyl)methyl)amino)pyrimidine-5-carbonitrile]
24 | 4 nM | 0.5 nM | 280 nM | N#Cc1c(N)nc(N)nc1N[C@H](c1nc2cccc(Cl)c2c(=O)n1CCCNC1COC1)C1CC1 [Compound 55, (S)-2,4-diamino-6-(((5-chloro-3-(3-(oxetan-3-ylamino)propyl)-4-oxo-3,4-dihydroquinazolin-2-yl)(cyclopropyl)methyl)amino)pyrimidine-5-carbonitrile]
25 | 4 nM | 0.4 nM | 540 nM | N#Cc1c(N)nc(N)nc1N[C@H](c1nc2cccc(Cl)c2c(=O)n1CCCNC1CCC(F)(F)CC1)C1CC1 [Compound 56, (S)-2,4-diamino-6-(((5-chloro-3-(3-((4,4-difluorocyclohexyl)amino)propyl)-4-oxo-3,4-dihydroquinazolin-2-yl)(cyclopropyl)methyl)amino)pyrimidine-5-carbonitrile]
26 | 4 nM | 1 nM | 97 nM | N#Cc1c(N)nc(N)nc1N[C@H](c1nc2cccc(Cl)c2c(=O)n1CCCC(N)=O)C1CC1 [Compound 66, (S)-4-(5-chloro-2-(cyclopropyl((2,6-diamino-5-cyanopyrimidin-4-yl)amino)methyl)-4-oxoquinazolin-3(4H)-yl)butanamide]

From patent publication US11021467B2, “Phosphatidylinositol 3-kinase inhibitors” (Gilead Sciences, Inc., priority 2014, dated 2021)
